# Experimental data reported in paper PMC8915833 (Proceedings of the National Academy of Sciences of the …, 2022).
# Biological target: T1, PctA dCache_1 domain (Pseudomonas aeruginosa, UniProt G3XD24)
# T1 sequence (G3XD24 32-276 limits assumed): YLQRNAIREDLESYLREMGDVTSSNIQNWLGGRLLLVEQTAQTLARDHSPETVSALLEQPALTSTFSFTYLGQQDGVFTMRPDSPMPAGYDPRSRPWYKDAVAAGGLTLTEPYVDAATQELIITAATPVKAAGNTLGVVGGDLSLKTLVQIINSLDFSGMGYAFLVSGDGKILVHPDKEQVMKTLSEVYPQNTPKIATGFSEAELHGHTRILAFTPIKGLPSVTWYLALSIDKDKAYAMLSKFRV
# Assay: isothermal titration calorimetry
# Format: binding
smiles,measurement,value
C[C@H](N)C(=O)O [L-Ala],KD,Isothermal titration calorimetry study of L-Ala binding to the wild type and the mutated
